Data reported in ChEMBL document CHEMBL1158269, “Ehretianone, a novel quinonoid xanthene from Ehretia buxifolia with antisnake venom activity” (J Nat Prod, 1996).

Assays:
[1] = Antisnake venom activity against Echis carinatus venom assessed as mortality at 1.25 mg/kg preincubated for 30 mins with venom LD50 before subcutaneous administration to Swiss albino mouse measured within 24 hrs; format: functional
[2] = Antisnake venom activity against Echis carinatus venom assessed as mortality at 2.50 mg/kg preincubated for 30 mins with venom LD50 before subcutaneous administration to Swiss albino mouse measured within 24 hrs; format: functional; conditions: dose 2.5 mg/kg
[3] = Antisnake venom activity against Echis carinatus venom assessed as mortality at 3.75 mg/kg preincubated for 30 mins with venom LD50 before subcutaneous administration to Swiss albino mouse measured within 24 hrs; format: functional
Mus musculus = test: Toxicity in Swiss albino mouse up to 100 mg/kg, sc; format: organism-based; parameters: dose 100 mg/kg, route subcutaneous; conditions: in vivo
[4] = Prophylactic activity against Echis carinatus venom assessed as mortality at 3.75 mg/kg, sc administered 30 mins before injection of venom to Swiss albino mouse measured within 24 hrs; format: functional; conditions: route subcutaneous
[5] = Curative activity against Echis carinatus venom assessed as mortality at 3.75 mg/kg, sc administered 5 mins after injection of venom to Swiss albino mouse measured within 24 hrs; format: functional; conditions: route subcutaneous
[6] = Curative activity against Echis carinatus venom assessed as mortality at 3.75 mg/kg, sc administered 30 mins after injection of venom to Swiss albino mouse measured within 24 hrs; format: functional; conditions: route subcutaneous
[7] = Curative activity against Echis carinatus venom assessed as mortality at 3.75 mg/kg, sc administered 45 mins after injection of venom to Swiss albino mouse measured within 24 hrs; format: functional; conditions: route subcutaneous

CC(C)=CC[C@]12C(=O)C=CC(=O)[C@]13CC(C)=C[C@H]2c1cc(O)ccc1O3 [EHRETIANONE]
Activity [1]: 43.3%
Activity [2]: 26.7%
Activity [3]: 13.3%
Activity (Mus musculus): Non-toxic
Activity [4]: 16.7%
Activity [5]: 21.7%
Activity [6]: 38.3%
Activity [7]: 45%
